{"source": "patent US7163944B2", "about": "“Cyclic diamine compound and pharmaceutical containing the same” (Kowa Co., Ltd., priority 2004, dated 2007)", "key": {"[1]": {"system": "lipid-loaded F1B hamster model", "experiment": "Aorta lipid deposition suppression test, lipid-loaded F1B hamster model", "type": "in vivo", "settings": "Bio F1B male hamsters, fat-rich diet 10 weeks, 1 mg/kg orally twice a day, aorta Oil red O area vs control group", "description": "Test 3: Aorta Lipid Deposition Suppression Test\nIn accordance with the method of Nicolosi, et al., a test using an animal model of arteriosclerosis, that is, a lipid-loaded F1B hamster model was made and a lipid deposition area in the aortic arch was measured to investigate the effects of the test compound for suppressing lipid deposition [refer to Nicolosi R J, et al., Atherosclerosis 137, 77–85(1988)].\nBio F1B male hamsters purchased from Charles River Japan, Inc. were divided at random into three groups (a compound (1) administered group, a comparative compound (B) administered group and a medicament non-administered group (control group)), each group consisting of 6 hamsters. […] After 10 weeks, an area of the lipid deposited in the aorta was measured by an image analyser. […]\nAn 18-G injection needle was inserted into the cardiac apex, followed by perfusion with physiological saline (120 mmHg) for about 5 minutes, and then, with a 4% paraformaldehyde solution (120 mmHg) for about 5 minutes. […] The image was scanned into a computer and the area of the portion stained with Oil red 0 and the area of the lumen surface were measured using an image analyser software (“Win Roof”, product of Mitani Shoji). In each case of each group, a ratio of the area of the portion stained with Oil Red O to the lumen surface area was calculated and it was designated as an aorta lipid deposition ratio. […]"}, "[2]": {"experiment": "Metabolic stability in human liver microsomes", "type": "in vitro ADME", "description": "Test 2: Test on Metabolic Stability in Human Liver Microsomes\nIn accordance with the below-described Table 2, an NRS (NADPH regenerating system) solution and 16% human serum albumin were added to a 0.1 mol/L phosphate buffer (containing 3.3 mM magnesium chloride) (pH 7.4), followed by the addition of a solution of a test compound (100 μM) in acetonitrile (0.01 mL). After preincubation in a warm bath of 37° C. for 5 minutes, human liver microsomes (POOLED HUMAN LIVER MICROSOMES, Lot. No. 20, product of GENETEST) were added and a reaction was effected for 30 minutes in a warm bath of 37° C. A 0.25 mL portion of the reaction mixture was collected 0 and 30 minutes after the initiation of the reaction, followed by extraction. The amount of the test compound was measured by HPLC. A remaining ratio of the unchanged compound after 30 minutes was calculated based on the following equation: (peak area after 30 minutes/peak area at 0 minute)×100.\nTo each sample were added 1.0 mL of a glycine buffer (pH 10), 0.1 mL of an internal standard substance and 5.0 mL of tert-butyl methyl ether, followed by shaking for 10 minutes and centrifugal separation at 2500 rpm for 10 minutes to collect the organic layer."}, "ACAT": {"biological_target": "T1, ACAT (Mus musculus, UniProt Q61263)", "T1 construct": "endogenous in cells; host or cells: J774 cells", "T1 sequence (Q61263 1-540)": "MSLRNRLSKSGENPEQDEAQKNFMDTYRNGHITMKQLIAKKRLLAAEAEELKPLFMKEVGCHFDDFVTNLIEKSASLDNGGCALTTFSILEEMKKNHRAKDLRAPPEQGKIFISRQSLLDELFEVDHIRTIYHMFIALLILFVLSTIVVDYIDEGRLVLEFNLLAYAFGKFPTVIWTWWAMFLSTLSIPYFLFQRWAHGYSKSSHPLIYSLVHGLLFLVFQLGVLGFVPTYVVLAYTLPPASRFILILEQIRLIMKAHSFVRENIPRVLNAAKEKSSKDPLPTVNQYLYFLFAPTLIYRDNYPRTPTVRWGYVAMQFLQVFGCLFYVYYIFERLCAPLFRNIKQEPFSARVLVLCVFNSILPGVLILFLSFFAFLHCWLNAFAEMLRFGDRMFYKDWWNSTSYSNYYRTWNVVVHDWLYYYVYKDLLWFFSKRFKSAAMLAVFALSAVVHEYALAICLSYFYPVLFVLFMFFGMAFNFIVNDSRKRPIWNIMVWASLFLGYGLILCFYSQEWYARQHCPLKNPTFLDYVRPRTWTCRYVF", "experiment": "Cholesterol ester accumulation inhibitory action (ACAT inhibitory activity) in J774 cells", "type": "cell-based", "settings": "25-hydroxycholesterol 10 μg/ml, 18 hours incubation, concentration inhibiting 50% of CE production, N=4", "description": "Test 1: Cholesterol Ester Accumulation Inhibitory Action (ACAT Inhibitory Activity) in J774 Cells.\nJ774 cells (2×10^5 cells/well) were seeded on a 24-well plate and incubated for 24 hours in 500 μL of DMEM (10% FBS). After replacement with a new medium, 25-hydroxycholesterol (10 μg/ml) and a test compound (final concentration: 0, 10^−9 to 10^−5 mol/L) were added, followed by incubation for 18 hours. After washing with 0.9% NaCl, the lipid was extracted with 250 μL of hexane-isopropanol (3:2) and then extracted with 250 μL of hexane-isopropanol (3:2) again. After the extracts were combined and distilled, the amount of cholesterol ester (CE) thus obtained was determined by the fluorescent enzyme assay. The cells from which the lipid was extracted were subjected to protein assay (micro BCA assay) and the amount of CE per mg of protein was determined. From a CE production ratio of the test compound to the control, IC50 (concentration of the compound inhibiting 50% of CE production) was calculated at N=4."}}}
{"smiles": "O=C(CN1CCN(CCSc2nc3cccc(C(F)(F)F)c3o2)CC1)Nc1c(C(F)(F)F)cc(O)cc1C(F)(F)F", "note": "[compound (1), 2-[4-[2-(7-trifluoromethylbenzoxazol-2-ylthio)ethyl]piperazin-1-yl]-N-[4-hydroxy-2,6-bis(trifluoromethyl)phenyl]acetamide]", "values": [{"measurement": "lipid deposition suppression ratio", "setting": "[1]", "result": 43, "unit": "%"}, {"measurement": "remaining ratio of the unchanged compound after 30 minutes", "setting": "[2]; pooled human liver microsomes, 37° C., 30 minutes, NADPH regenerating system, human serum albumin, HPLC", "result": 38, "unit": "%"}, {"measurement": "metabolic resistance in human liver microsomes relative to compound (B)", "setting": "[2]; times higher than compound (B)", "result": "about 40 times"}, {"measurement": "melting point", "result": "176 to 177", "unit": "°C"}, {"measurement": "IC50", "setting": "ACAT", "result": 49, "unit": "nM"}]}
